Assay: in vitro
Details: human, hela cells, % viability

| Structure (SMILES) | viability at 28.5 h, 10 µM [%] |
| --- | --- |
| CCN(CC(=O)NC(C)(C)C)Cc1nc(-c2cccc(Br)c2)no1 [CBK304230] | 102 |
| CN(Cc1ccsc1)C(=O)c1cccc(S(=O)(=O)NCC2CCCO2)c1 (stereo not drawn) [CBK304232] | 83.7 |
| Cc1nc(COc2ccc(Cl)cc2)sc1C(=O)N1CCCCC1C(=O)O (stereo not drawn) [CBK304233] | 87.9 |
| COc1ccc(Br)c(C(CO)N(C)C(=O)CC#N)c1 (stereo not drawn) [CBK304240] | 88 |
| Cn1ncc2c(NCc3cccc(Cn4cncn4)c3)ncnc21 [CBK304241] | 89.9 |
| Cc1nc(C(=O)NCC2CN3CCCN2CC3)ccc1C(=O)O (stereo not drawn) [CBK304242] | 94 |
| CN(C(=O)C12CCOCC1CN(c1nccnc1C#N)C2)C1CCCC1 (stereo not drawn) [CBK304244] | 93.6 |
| CC(Cc1nc(-c2cnnn2C)cs1)n1cc(Cl)cn1 (stereo not drawn) [CBK304245] | 99.6 |
| CC(C)(C)OC(=O)N1CCC(N(CCCO)Cc2ccccn2)CC1 [CBK304246] | 95.1 |
| COc1cc(C(C)NC2CCN(c3nc(C)cs3)CC2)ccn1 (stereo not drawn) [CBK304247] | 83.4 |
| CC(Cc1nc(-c2nccn2C(C)C)cs1)n1cc(Cl)cn1 (stereo not drawn) [CBK304251] | 102 |
| COCC1(O)CCN(Cc2sccc2Cl)CC1 [CBK304252] | 98.7 |
| CCOC(=O)C(NC(=O)c1c(C)nn(C)c1C)c1cccc(C)c1C (stereo not drawn) [CBK304253] | 98.9 |
| Cc1ncsc1CCS(=O)(=O)N1CCOCC1c1cccc(F)c1 (stereo not drawn) [CBK304254] | 91 |
| CC(Cc1nc(-c2cnn(C)n2)cs1)n1cc(Cl)cn1 (stereo not drawn) [CBK304256] | 90.8 |
| CCc1ccc(C(O)CNC2CCN(CCOC)CC2)cc1 (stereo not drawn) [CBK304259] | 104 |
| Cc1nc(C(=O)NC2CCN(C)CC2)ccc1C(=O)O [CBK304262] | 95.2 |
| CC(NCC(O)c1ccco1)c1ccc(C#N)s1 (stereo not drawn) [CBK304265] | 85.9 |
| O=C(C1CC(O)CN1)N1CC2(CCCC2)c2c(F)cccc21 (stereo not drawn) [CBK304269C] | 99 |
| Cn1cc(C2CNCCN2C(=O)c2coc3ccccc23)cn1 (stereo not drawn) [CBK304270C] | 87 |
| CC(N)C1CCCCN1S(=O)(=O)c1ccc(OCc2ncnn2C)cc1 (stereo not drawn) [CBK304272C] | 94.3 |
| COc1ccccc1-c1cc2nc(C)cc(NCC3CCCO3)n2n1 (stereo not drawn) [CBK304277] | 96.5 |
| O=C(NCCNc1cnccn1)c1cncc(Br)c1 [CBK304278] | 111 |
| CC1CCC2(CC1)NC(=O)N(Cc1csc(-c3ccco3)n1)C2=O (stereo not drawn) [CBK304279] | 98.6 |

| Structure (SMILES) | viability at 28.5 h, 10 µM [%] |
| --- | --- |
| CC(C)(C)OC(=O)N1CCCC(C(=O)NCCc2ccccn2)C1 (stereo not drawn) [CBK304281] | 86.5 |
| O=C(Cc1cn2ccsc2n1)NCCS(=O)(=O)N1CCc2ccccc21 [CBK304282] | 75.4 |
| N#Cc1cccnc1N1CCC(NC(=O)c2cccnc2)CC1 [CBK304283] | 103 |
| CC1(C)CN(Cc2cccc(-c3ccccn3)c2)CCS1(=O)=O [CBK304284] | 99.8 |
| CCOc1ncccc1NC(=O)c1cnc2c(cnn2CC(C)C)c1 [CBK304288] | 83.3 |
| Cc1ccc2c(c1)nc(CNC(=O)NCc1ccnc(C)n1)n2C [CBK304292] | 101 |
| CCC(=O)Nc1ccc(-c2csc(N(C)C)n2)cc1 [CBK304294C] | 103 |
| COc1cc2c(cc1CNC1CCCc3c1cnn3C)OC(C)C2 (stereo not drawn) [CBK304296C] | 94.6 |
| CN(C(=O)CN)c1nc2c(s1)CC(c1ccccc1)CC2 (stereo not drawn) [CBK304298C] | 74.1 |
| CCc1noc(C)c1C(=O)N1CCC(NC)C1 (stereo not drawn) [CBK304299C] | 100 |
| CCCN(C(=O)CCc1ccc(C)cc1C)C1CCNCC1 [CBK304302C] | 109 |
| COc1c(Cl)cc(Cl)cc1CNC1CCCc2c1cnn2C (stereo not drawn) [CBK304305C] | 90.6 |
| COc1ccc(C)cc1C1(CNC(=O)C2CCCC2N)CCOCC1 (stereo not drawn) [CBK304308C] | 108 |
| CNCC1CCN(S(=O)(=O)c2ccc(OCc3ncnn3C)cc2)CC1 [CBK304309C] | 97.6 |
| CN(C(=O)CCn1c(=O)oc2cc(Cl)ccc21)C1CCNC1 (stereo not drawn) [CBK304310C] | 101 |
| COc1ccc(C)cc1C1(CNC(=O)C2CCC(N)C2)CCOCC1 (stereo not drawn) [CBK304312C] | 107 |
| Cn1ncnc1COc1ccc(S(=O)(=O)N2CCCCC2CN)cc1 (stereo not drawn) [CBK304313C] | 82.3 |
| CN(C)CCCNC(=O)c1cccc(S(=O)(=O)N2CCCCC2)c1 [CBK304314C] | 91.6 |
| CS(=O)(=O)NC1CCN(c2nc(C(=O)O)nc3ccccc23)CC1 [CBK304316N] | 105 |
| CC(C)C(=O)Nc1ccc(-c2csc(N3CCN(C)CC3)n2)cc1 [CBK304317C] | 93.5 |
| CN1CCN(c2nc(-c3ccc4c(c3)CCC(=O)N4)cs2)CC1 [CBK304319C] | 80.6 |
| CCn1cc(NC(=O)C(CC)(CC)CN)ccc1=O [CBK304320C] | 89.2 |
| CC(C)c1nn(C)c(N(C)C)c1CNCc1cscn1 [CBK304321C] | 84.4 |
| CCn1cc(Cl)c(C(=O)NC2CCN(c3cc(C)n[nH]3)CC2)n1 [CBK304322] | 91.8 |

| Structure (SMILES) | viability at 28.5 h, 10 µM [%] |
| --- | --- |
| O=C(NC1CCS(=O)(=O)C1)c1cnc2c(OC(F)(F)F)cccc2c1O (stereo not drawn) [CBK304323] | 99.7 |
| Cc1cc(NC(=O)CCn2cc(Br)cn2)no1 [CBK304326] | 102 |
| CCCOc1ccc(C(=O)N2CCN(c3ccccc3)CC2)cc1 [CBK304327] | 90.7 |
| CCOC(=O)c1cnc2ccccc2c1NCCN1CCOCC1 [CBK304328] | 101 |
| Cc1cc(NC(=O)C2CCN(C(=O)CCSc3ccccc3)CC2)no1 [CBK304329] | 99 |
| CC(C)(C)OC(=O)N1CCC(c2nc(-c3cccnc3)no2)CC1 [CBK304332] | 84.6 |
| Cc1csc(CN(C)C(=O)c2cc3sccc3[nH]2)n1 [CBK304334] | 92.7 |
| Cc1nn(C)cc1CNC(=O)c1cc2ncc(Br)cn2n1 [CBK304336] | 102 |
| CCCC(=O)Nc1ccc(C(=O)N2CCN(C)CC2)cc1 [CBK304337] | 100 |
| Cc1cc(CN(C)C(=O)c2cc3sccc3[nH]2)no1 [CBK304340] | 82.7 |
| O=C(NC1CCN(c2nc3cccnc3s2)CC1)c1ccsc1 [CBK304342] | 93 |
| CCCC(=O)N1CCC(C(=O)Nc2ccccc2F)CC1 [CBK304346] | 108 |
| CC1(C)CC(NC(=O)Cn2ccc3ccccc32)CCO1 (stereo not drawn) [CBK304347] | 98 |
| CC(C)c1nc(C(=O)NCC2CCCN(c3ncccn3)C2)cs1 (stereo not drawn) [CBK304351] | 100 |
| COCCN(CC1CC1)C(=O)c1cc(NC(C)=O)ccc1Cl [CBK304352] | 109 |
| O=C(CCCOc1ccccc1)N1CCN(c2cccc(Cl)c2)CC1 [CBK304354] | 107 |
| Cc1nn(C)c(C)c1CCC(=O)NCC1CCN(c2ccccc2F)C1 (stereo not drawn) [CBK304357] | 96.7 |
| Cc1cc(NC(=O)C2CCN(C(=O)c3c(F)cccc3F)CC2)no1 [CBK304359] | 95.9 |
| CN(Cc1cccc(C(F)(F)F)c1)C(=O)c1cn(CC2CCCO2)nn1 (stereo not drawn) [CBK304360] | 99.8 |
| COc1ccc2cc(C(=O)N3CCn4cncc4C3)n(C)c2c1 [CBK304362] | 98.6 |
| Cn1nccc1CCNC(=O)c1cccc(S(=O)(=O)N2CCCCC2)c1 [CBK304363] | 97 |
| CCS(=O)(=O)N1CCC(C(=O)NC2CC(C)(C)Oc3ccccc32)CC1 (stereo not drawn) [CBK304364] | 90.1 |
| CC1(C)CC(NC(=O)C2CCCN(S(C)(=O)=O)C2)c2ccccc2O1 (stereo not drawn) [CBK304365] | 98.2 |
| CC(C)NC(=O)CN1CCN(Cc2nc(-c3cccc(Cl)c3)no2)CC1 [CBK304369] | 100 |

| Structure (SMILES) | viability at 28.5 h, 10 µM [%] |
| --- | --- |
| O=C(CN1CCCCC1CN1CCOCC1)NCc1ccccn1 (stereo not drawn) [CBK304375] | 115 |
| CCOC(=O)c1cnc2ccc(F)cc2c1N1CCN(C)CC1 [CBK304376] | 90.1 |
| Cc1nc(CCNC(=O)C2CCN(C(=O)c3ccc(F)cc3)CC2)cs1 [CBK304378] | 105 |
| Cn1nc(C2CC2)cc1NC(=O)NCC1CCN(c2ccccc2F)C1 (stereo not drawn) [CBK304380] | 85.2 |
| O=C(Nc1ccc2nc3n(c(=O)c2c1)CCCC3)C1CCCCC1 [CBK304383] | 91.9 |
| COC(=O)c1cc(S(=O)(=O)N2c3ccccc3CC2C)cn1C (stereo not drawn) [CBK304384] | 81.4 |
| CCOC(=O)Cc1nnc(-c2cccc(C(F)(F)F)c2)[nH]1 [CBK304385] | 81.1 |
| COC(=O)c1ccc(NC(=O)N(Cc2cnn(C)c2)CC(C)C)cc1Cl [CBK304387] | 93.1 |
| CC(=O)Nc1ccc(F)c(NC(=O)NCC2CCOC2)c1 (stereo not drawn) [CBK304388] | 107 |
| CSc1cccc(C(=O)Nc2sc3c(c2C#N)CCN(C(C)=O)C3)c1 [CBK304390] | 56 |
| CCCN(CCC)C(=O)c1ccc(NC(=O)CC)cc1 [CBK304391] | 91.8 |
| O=C1CCC(N2CCN(c3ncnc4ccccc34)CC2)CCN1 (stereo not drawn) [CBK304393] | 96.8 |
| COc1ccc(CN2CCN(C(=O)c3cccc(F)c3)CC2)cc1 [CBK304396] | 97 |
| Cc1cc(C)n(CCCC(=O)N2CCC3(CCCO3)CC2)n1 [CBK304397] | 102 |
| COCCN1CC(CNC(=O)Nc2cc(NC(C)=O)ccc2F)CC1=O (stereo not drawn) [CBK304398] | 82.4 |
| Cc1cccc(C(=O)N2CCN(Cc3nc4ccccc4[nH]3)CC2)c1 [CBK304399] | 90.2 |
| CCn1ncnc1CN1CCN(C2Cc3ccccc3C2)CC1 [CBK304401] | 101 |
| COc1ccc(S(=O)(=O)NC(CCSC)c2nnc3ccccn23)cc1 (stereo not drawn) [CBK304402] | 109 |
| CC1(C)CC(NC(=O)C2CCN(S(C)(=O)=O)CC2)c2ccccc2O1 (stereo not drawn) [CBK304404] | 103 |
| Cc1cc(C)c(NC(=O)N(CCCO)Cc2ccncc2)c(Cl)c1 [CBK304406] | 87.3 |
| Cc1nc(-c2ccc(Cl)cc2)sc1C(=O)N1CCCC(C(=O)O)C1 (stereo not drawn) [CBK304407] | 91.9 |
